Among the data in US7705030B2, “Amino-5-(5-membered)hetero-arylimidazolone compounds and the use thereof for β-secretase modulation” (Wyeth LLC, priority 2005, dated 2010) are IC50 and melting point values, retold here.

As a reminder, the IC50 is the midpoint of a concentration-inhibition curve. For orientation: melting point means the temperature, or range, at which the solid turns liquid.

For one data set, the target named is human BACE1 (Homo sapiens, UniProt P56817). Kind of data set: Fluorescent kinetic assay: Evaluation of BACE-1 Binding Affinity of Test Compounds. The data set is classed as biochemical. To be noted: 10 nM enzyme, 25 μM substrate WABC-6, 50 mM Na-Acetate pH 4.5, room temperature. The method in brief: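 Run with 10 nM human BACE1 and 25 μM WABC-6 FRET peptide in 50 mM Na-acetate pH 4.5, 0.05% CHAPS, 25% PBS at room temperature. Fluorescence (ex 320/em 420 nm) was read every 40 sec for 30 min, and initial cleavage rates were taken from linear slopes across ≥10 inhibitor concentrations.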
Chain of human BACE1 (P56817 46-501): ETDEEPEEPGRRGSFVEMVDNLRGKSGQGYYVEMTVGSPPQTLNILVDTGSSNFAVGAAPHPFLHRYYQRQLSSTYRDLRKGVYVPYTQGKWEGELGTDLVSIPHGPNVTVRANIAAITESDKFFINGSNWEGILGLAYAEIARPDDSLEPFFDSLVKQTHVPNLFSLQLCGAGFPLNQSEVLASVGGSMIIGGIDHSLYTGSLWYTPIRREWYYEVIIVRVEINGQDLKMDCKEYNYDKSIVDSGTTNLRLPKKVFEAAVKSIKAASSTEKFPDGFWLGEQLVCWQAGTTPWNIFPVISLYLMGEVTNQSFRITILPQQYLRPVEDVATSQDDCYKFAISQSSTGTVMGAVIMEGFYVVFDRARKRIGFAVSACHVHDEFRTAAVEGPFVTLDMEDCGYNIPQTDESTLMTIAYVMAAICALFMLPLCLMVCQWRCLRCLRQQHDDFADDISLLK

`CCC(=O)c1cc(C2(c3ccc(F)c(-c4cncnc4)c3)N=C(N)N(C)C2=O)cn1CC(F)(F)F` (centres unmarked) [Example 208] displayed a melting point of 225 to 226 °C. The IC50 at human BACE1 fell in the range of 10 to 100 nM.

For the molecule `CN1C(=O)C(c2cccc(-c3cccnc3F)c2)(c2cc(C#N)n(CCF)c2)N=C1N` (centres unmarked) [Example 231], the melting point is 175 to 177 °C. For the same molecule, on human BACE1, the half-inhibitory concentration (IC50) was 10 to 100 nM.

`CCn1cc(C2(c3cccc(-c4cccnc4F)c3)N=C(N)N(C)C2=O)cc1CO` (centres unmarked) [Example 239, 2-Amino-5-[1-ethyl-5-(hydroxymethyl)-1H-pyrrol-3-yl]-5-[3-(2-fluoropyridin-3-yl)phenyl]-3-methyl-3,5-dihydro-4H-imidazol-4-one] came in with a melting point of 170 to 172 °C. Further, the IC50 at human BACE1 was 10 to 100 nM.

`CCn1cc(C2(c3cccc(-c4cccnc4F)c3)N=C(N)N(C)C2=O)cc1C=O` (centres unmarked) [Example 233, 4-[2-amino-4-[3-(2-fluoropyridin-3-yl)phenyl]-1-methyl-5-oxo-4,5-dihydro-1H-imidazol-4-yl]-1-ethyl-1H-pyrrole-2-carbaldehyde]: the melting point was in the range of 198 to 201 °C. This molecule also yielded an IC50 on human BACE1 of 10 to 100 nM.

For the molecule `COC(=O)c1cc(C2(c3cccc(-c4cc(C#N)ccc4F)c3)N=C(N)N(C)C2=O)cn1CCF` (centres unmarked) [Example 195], the melting point lay in the range of 147 to 150 °C. Moreover, the IC50 on human BACE1 was 10 to 100 nM.

Take `CN1C(=O)C(c2cccc(-c3cccnc3)c2)(c2cnn(CC(F)(F)F)c2)N=C1N` (centres unmarked) [Example 88]: the melting point fell in the range of 202 to 204 °C. Further, the IC50 at human BACE1 was 110 to 1000 nM.

Take `CCCn1cc(C2(c3cccc(-c4cc(F)cnc4Cl)c3)N=C(N)N(C)C2=O)cc1C#N` (centres unmarked) [Example 232]: the melting point was 132 to 134 °C. The molecule also registered a half-inhibitory concentration (IC50) at human BACE1 of 110 to 1000 nM.

In the case of `CC(C)Cn1cc(C2(c3cccc(-c4cncnc4)c3)N=C(N)N(C)C2=O)cn1` (centres unmarked) [Example 5, 2-Amino-5-(1-isobutyl-1H-pyrazol-4-yl)-3-methyl-5-(3-pyrimidin-5-ylphenyl)-3,5-dihydro-4H-imidazol-4-one], the melting point lay in the range of 118 to 122 °C. Besides, the 50% inhibitory concentration (IC50) on human BACE1 is 10 to 100 nM.

Molecule `CCC(=O)c1cc([C@]2(c3ccc(F)c(-c4cccnc4F)c3)N=C(N)N(C)C2=O)cn1CC` [Example 183A, (5S)-2-Amino-5-(1-ethyl-5-propionyl-1H-pyrrol-3-yl)-5-[4-fluoro-3-(2-fluoropyridin-3-yl)phenyl]-3-methyl-3,5-dihydro-4H-imidazol-4-one] yielded a melting point of 114 to 116 °C. The molecule further registered an IC50 on human BACE1 of 10 to 100 nM.

In the case of `CCC(=O)c1cc(C2(c3cccc(OCC(C)C)c3)N=C(N)N(C)C2=O)cn1CC` (centres unmarked) [Example 138], the melting point amounted to 78 °C. Besides, the 50% inhibitory concentration (IC50) at human BACE1 lay in the range of 10 to 100 nM.

In the case of `COc1ccc(F)cc1-c1cccc(C2(c3cnn(CC(F)(F)F)c3)N=C(N)N(C)C2=O)c1` (centres unmarked) [Example 85], the melting point fell in the range of 104 to 106 °C. Besides, at human BACE1, the IC50 fell in the range of 110 to 1000 nM.

Take `CCC(=O)c1cc(C2(c3cccc(-c4ccc(F)c(Cl)c4)c3)N=C(N)N(C)C2=O)cn1CC(F)(F)F` (centres unmarked) [Example 205]: the melting point lay in the range of 107 to 108 °C. In addition, the IC50 on human BACE1 was 10 to 100 nM.

With `CC(C)OC(=O)c1cc(C2(c3ccc(F)c(-c4cncnc4)c3)N=C(N)N(C)C2=O)cn1CCF` (centres unmarked) [Example 127], the melting point lay in the range of 167 to 170 °C. Moreover, the half-inhibitory concentration (IC50) on human BACE1 fell in the range of 110 to 1000 nM.

The molecule `COC(=O)c1cc(C2(c3ccc(F)c(-c4cncnc4)c3)N=C(N)N(C)C2=O)cn1CCF` (centres unmarked) [Example 118, Methyl 4-[2-Amino-4-(4-fluoro-3-pyrimidinyl-5-phenyl)-1-methyl-5-oxo-4,5-dihydro-1H-imidazol-4-yl]-1-(2-fluoroethyl)-1H-pyrrole-2-carboxylate] showed a melting point of 88 to 90 °C. The same molecule came in with a half-maximal inhibitory concentration (IC50) at human BACE1 of 10 to 100 nM.

`CCn1cc(C2(c3cccc(-c4cccnc4F)c3)N=C(N)N(C)C2=O)cc1C(=O)NC(C)C` (centres unmarked) [Example 161] registered a melting point of 121 to 123 °C. This molecule also yielded a half-inhibitory concentration (IC50) at human BACE1 of 110 to 1000 nM.

On to `COc1cccc(-c2cccc(C3(c4cnn(CC(F)(F)F)c4)N=C(N)N(C)C3=O)c2)c1` (centres unmarked) [Example 82], for which the melting point lay within 95 to 97 °C. In addition, the IC50 on human BACE1 fell in the range of 10 to 100 nM.
